14 compounds from patent publication US9242970B2 (ACTELION PHARMACEUTICALS LTD., priority 2010, dated 2016) can be followed below.

By IC50 is commonly meant the concentration that gives 50% inhibition.

One assay has as its target human orexin-1 receptor (Homo sapiens (Human), UniProt O43613). The experiment in a line: In vitro assay: intracellular calcium measurements (FLIPR), antagonistic activity. Type of assay: cell-based. As to conditions: CHO cells, 3 nM orexin-A, compound incubation 120 min; marked values are geometric means of n = 2-6; read-out: IC50 OX1. On the technique in general: Calcium flux is commonly read through the fluorescence of an indicator in the cells.

A further assay concerns the target human orexin-2 receptor (Homo sapiens (Human), UniProt O43614). Described as above. Format: cell-based. Particulars: CHO cells, 3 nM orexin-A, compound incubation 120 min; marked values are geometric means of n = 2-6; read-out: IC50 OX2.

Chain of human orexin-2 receptor (O43614 whole entry): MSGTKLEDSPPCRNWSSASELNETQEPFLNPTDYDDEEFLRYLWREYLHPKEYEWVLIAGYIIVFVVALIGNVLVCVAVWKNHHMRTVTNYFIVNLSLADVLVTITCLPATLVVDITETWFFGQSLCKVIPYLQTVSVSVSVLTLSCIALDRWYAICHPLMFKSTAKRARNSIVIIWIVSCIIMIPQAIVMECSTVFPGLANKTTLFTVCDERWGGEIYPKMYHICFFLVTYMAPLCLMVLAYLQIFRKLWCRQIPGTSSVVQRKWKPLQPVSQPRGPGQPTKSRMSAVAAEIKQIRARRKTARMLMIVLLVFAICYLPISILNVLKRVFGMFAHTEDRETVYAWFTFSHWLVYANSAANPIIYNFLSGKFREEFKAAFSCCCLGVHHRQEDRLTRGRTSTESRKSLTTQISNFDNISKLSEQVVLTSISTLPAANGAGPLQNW
Chain of human orexin-1 receptor (O43613 whole entry): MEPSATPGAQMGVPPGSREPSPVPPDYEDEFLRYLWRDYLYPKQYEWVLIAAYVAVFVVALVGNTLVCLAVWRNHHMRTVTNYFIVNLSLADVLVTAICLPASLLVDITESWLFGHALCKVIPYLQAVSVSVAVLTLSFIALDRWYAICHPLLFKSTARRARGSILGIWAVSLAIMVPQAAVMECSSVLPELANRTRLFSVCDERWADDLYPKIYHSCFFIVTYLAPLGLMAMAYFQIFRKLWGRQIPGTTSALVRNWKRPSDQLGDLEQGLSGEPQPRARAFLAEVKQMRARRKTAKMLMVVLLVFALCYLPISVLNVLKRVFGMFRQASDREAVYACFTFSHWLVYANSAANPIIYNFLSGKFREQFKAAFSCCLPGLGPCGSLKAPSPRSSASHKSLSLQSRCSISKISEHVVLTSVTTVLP

Consider `Cc1nc(-c2cccc(CN3C(=O)CCCC3c3ccccc3-c3ccccc3)c2)cs1` (stereo not shown) [Example 283, 6-([1,1′-biphenyl]-2-yl)-1-(3-(2-methylthiazol-4-yl)benzyl)piperidin-2-one], for which the values for the IC50 at human orexin-1 receptor and at human orexin-2 receptor were 275 nM and 548 nM, respectively.

As for `O=C1CCCC(c2ccccc2-c2ccccc2)N1Cc1cccc(-c2ccccc2)c1` (stereo not shown) [Example 284, 6-([1,1′-biphenyl]-2-yl)-1-([1,1′-biphenyl]-3-ylmethyl)piperidin-2-one], the figures for the 50% inhibitory concentration (IC50) on human orexin-1 receptor and on human orexin-2 receptor were 1450 nM and 722 nM, respectively.

Consider `O=C1CCC(c2ccccc2-c2ccccc2)N1Cc1cccc(-c2ccccc2)c1` (stereo not shown) [Example 285, 5-([1,1′-biphenyl]-2-yl)-1-([1,1′-biphenyl]-3-ylmethyl)pyrrolidin-2-one], for which the IC50 at human orexin-1 receptor was 243 nM; at human orexin-2 receptor, 533 nM.

With `Cc1nc(-c2cccc(CN3C(=O)CCC3c3ccccc3-c3ccccc3)c2)cs1` (stereo not shown) [Example 286, 5-([1,1′-biphenyl]-2-yl)-1-(3-(2-methylthiazol-4-yl)benzyl)pyrrolidin-2-one], the IC50 was determined as 104 nM on human orexin-1 receptor and 462 nM at human orexin-2 receptor.

In the case of `O=C1CCC(c2ccccc2-c2ccccc2)N1Cc1ccc(OC(F)(F)F)cc1` (stereo not shown) [Example 287, 5-([1,1′-biphenyl]-2-yl)-1-(4-(trifluoromethoxy)benzyl)pyrrolidin-2-one], the IC50 at human orexin-1 receptor came to 922 nM; on human orexin-2 receptor, 585 nM.

Consider `O=C1CCC(c2ccccc2-c2ccccc2)N1Cc1csc(-c2ccccc2)n1` (stereo not shown) [Example 288, 5-([1,1′-biphenyl]-2-yl)-1-((2-phenylthiazol-4-yl)methyl)pyrrolidin-2-one], for which the IC50 at human orexin-1 receptor is 825 nM; at human orexin-2 receptor, 1370 nM.

As for `CC1CC(c2ccccc2-c2ccccc2)N(Cc2cccc(-c3ccccc3)c2)C1=O` (stereo not shown) [Example 289, 5-([1,1′-biphenyl]-2-yl)-1-([1,1′-biphenyl]-3-ylmethyl)-3-methylpyrrolidin-2-one], the figures for the concentration for half-maximal inhibition (IC50) at human orexin-1 receptor and at human orexin-2 receptor were 420 nM and 596 nM, respectively.

As to `Cc1nc(-c2cccc(CN3C(=O)C(C)CC3c3ccccc3-c3ccccc3)c2)cs1` (stereo not shown) [Example 290, 5-([1,1′-biphenyl]-2-yl)-3-methyl-1-(3-(2-methylthiazol-4-yl)benzyl)pyrrolidin-2-one], the IC50 on human orexin-1 receptor was found to be 103 nM; at human orexin-2 receptor, 455 nM.

With `CC1CC(c2ccccc2-c2ccccc2)N(Cc2ccc(OC(F)(F)F)cc2)C1=O` (stereo not shown) [Example 291, 5-([1,1′-biphenyl]-2-yl)-3-methyl-1-(4-(trifluoromethoxy)benzyl)pyrrolidin-2-one], the results for the IC50 on human orexin-1 receptor and on human orexin-2 receptor were 2050 nM and 457 nM, respectively.

Regarding `COc1cccc(OC)c1C1CCC(=O)N1Cc1ccc(Oc2nc(C)cs2)cc1` (stereo not shown) [Example 292, 5-(2,6-dimethoxyphenyl)-1-(4-((4-methylthiazol-2-yl)oxy)benzyl)pyrrolidin-2-one], the IC50 was 214 nM on human orexin-1 receptor and 125 nM at human orexin-2 receptor.

Take `COc1cccc(OC)c1C1CC(F)(F)C(=O)N1Cc1cccc(-c2ccccc2)c1` (stereo not shown) [Example 336, 1-([1,1′-biphenyl]-3-ylmethyl)-5-(2,6-dimethoxyphenyl)-3,3-difluoropyrrolidin-2-one]: the IC50 on human orexin-1 receptor came to 16 nM; on human orexin-2 receptor, 81 nM.

Regarding `CCOc1cccc(OC)c1C1CC(F)(F)C(=O)N1Cc1cccc(-c2ccccc2)c1` (stereo not shown) [Example 337, 1-([1,1′-biphenyl]-3-ylmethyl)-5-(2-ethoxy-6-methoxyphenyl)-3,3-difluoropyrrolidin-2-one], the figures for the IC50 at human orexin-1 receptor and on human orexin-2 receptor were 12 nM and 63 nM, respectively.

As to `COc1cccc(OC)c1C1CC(C)C(=O)N1Cc1cnc2ccccc2c1` (stereo not shown) [Example 347, 5-(2,6-dimethoxyphenyl)-3-methyl-1-(quinolin-3-ylmethyl)pyrrolidin-2-one], the half-inhibitory concentration (IC50) on human orexin-1 receptor came to 1400 nM; on human orexin-2 receptor it was 777 nM.

Turning to `COc1cccc(OC)c1C1CC(C)C(=O)N1Cc1ccc2ccccc2n1` (stereo not shown) [Example 348, 5-(2,6-dimethoxyphenyl)-3-methyl-1-(quinolin-2-ylmethyl)pyrrolidin-2-one], the IC50 was found to be 206 nM at human orexin-1 receptor and 474 nM on human orexin-2 receptor.
